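In this assay, cells in 96-well plates receive the compound at five concentrations for 48 hours. Endpoints are linearly interpolated between the surrounding concentrations. Abbreviation: GI50, concentration required for 50% inhibition of growth.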 The source made the active and inactive calls. Cut-off read from the data, not from the text of the source: active = GI50 up to about 1.1 µM and inactive = higher.
How the values were obtained:
Assay in all cases: NCI tumour cell line growth inhibition, 48 h
SK-OV-3 = tested on: SK-OV-3
MDA-MB-435 = tested on: MDA-MB-435
A498 = tested on: A498
UO-31 = tested on: UO-31
RPMI-8226 = tested on: RPMI-8226
LOX IMVI = tested on: LOX IMVI
UACC-257 = tested on: UACC-257
UACC-62 = tested on: UACC-62
KM12 = tested on: KM12
NCI-H522 = tested on: NCI-H522
SF-295 = tested on: SF-295
SF-539 = tested on: SF-539
CCRF-CEM = tested on: CCRF-CEM
Malme-3M = tested on: Malme-3M
MOLT-4 = tested on: MOLT-4
SK-MEL-5 = tested on: SK-MEL-5
DU-145 = tested on: DU-145
M14 = tested on: M14
MDA-N = tested on: MDA-N
OVCAR-3 = tested on: OVCAR-3

SMILES	GI50 (SK-OV-3)	GI50 (MDA-MB-435)	GI50 (A498)	GI50 (UO-31)	GI50 (RPMI-8226)	GI50 (LOX IMVI)	GI50 (UACC-257)	GI50 (UACC-62)	GI50 (KM12)	GI50 (NCI-H522)	GI50 (SF-295)	GI50 (SF-539)	GI50 (CCRF-CEM)	GI50 (Malme-3M)	GI50 (MOLT-4)	GI50 (SK-MEL-5)	GI50 (DU-145)	GI50 (M14)	GI50 (MDA-N)	GI50 (OVCAR-3)
CN(Cc1cnc2nc(N)nc(N)c2n1)c1ccc(C(=O)NC(CCC(=O)O)C(=O)O)cc1C(F)(F)F (stereo not drawn)	> 100 µM (inactive)	< 0.01 µM (active)	< 0.01 µM (active)	< 0.01 µM (active)	< 0.01 µM (active)	< 0.01 µM (active)	25.8 µM (inactive)	< 0.01 µM (active)	< 0.01 µM (active)	< 0.01 µM (active)	< 0.01 µM (active)	< 0.01 µM (active)	< 0.01 µM (active)	> 100 µM (inactive)	< 0.01 µM (active)	< 0.01 µM (active)	< 0.01 µM (active)	–	–	–
COC(=O)C1C(O)C(C(=O)OC)C(C)N(C)C1C (stereo not drawn)	> 100 µM (inactive)	> 100 µM (inactive)	> 100 µM (inactive)	> 100 µM (inactive)	> 100 µM (inactive)	> 100 µM (inactive)	> 100 µM (inactive)	> 100 µM (inactive)	> 100 µM (inactive)	–	> 100 µM (inactive)	> 100 µM (inactive)	> 100 µM (inactive)	–	> 100 µM (inactive)	> 100 µM (inactive)	–	> 100 µM (inactive)	> 100 µM (inactive)	> 100 µM (inactive)
CC(C)C(C/C=C1/CC(CO)(COC(=O)c2ccccc2)OC1=O)C(C)C (stereo not drawn)	45.4 µM (inactive)	26 µM (inactive)	18.2 µM (inactive)	16.3 µM (inactive)	–	23.8 µM (inactive)	24.8 µM (inactive)	23.9 µM (inactive)	15.9 µM (inactive)	19.9 µM (inactive)	12.2 µM (inactive)	4.69 µM (inactive)	16.8 µM (inactive)	12 µM (inactive)	11.8 µM (inactive)	8.45 µM (inactive)	–	15.7 µM (inactive)	15.7 µM (inactive)	17.5 µM (inactive)
O/N=N\c1nc(-c2cccnc2)nc2ccccc12	> 100 µM (inactive)	–	> 100 µM (inactive)	17.5 µM (inactive)	–	–	> 100 µM (inactive)	> 100 µM (inactive)	> 100 µM (inactive)	> 100 µM (inactive)	> 100 µM (inactive)	> 100 µM (inactive)	> 100 µM (inactive)	–	> 100 µM (inactive)	> 100 µM (inactive)	> 100 µM (inactive)	> 100 µM (inactive)	> 100 µM (inactive)	> 100 µM (inactive)
O=C(Nc1ccc(Sc2ccc(/N=N/c3c(O)c(S(=O)(=O)O)cc4cc(S(=O)(=O)O)ccc34)cc2)cc1)c1ccc(/N=N/c2c(O)c(S(=O)(=O)O)cc3cc(S(=O)(=O)O)ccc23)cc1	> 100 µM (inactive)	–	45.2 µM (inactive)	35.6 µM (inactive)	5.53 µM (inactive)	18.5 µM (inactive)	13.8 µM (inactive)	22.2 µM (inactive)	33 µM (inactive)	12.2 µM (inactive)	22.3 µM (inactive)	45.8 µM (inactive)	21.2 µM (inactive)	15.5 µM (inactive)	9.25 µM (inactive)	13.5 µM (inactive)	–	24.9 µM (inactive)	–	15.8 µM (inactive)
Cc1cc(N(CCC#N)CCC#N)ccc1/C=C1N=C(/C=C\c2ccccc2)OC\1=O	> 100 µM (inactive)	–	> 100 µM (inactive)	> 100 µM (inactive)	> 100 µM (inactive)	> 100 µM (inactive)	> 100 µM (inactive)	> 100 µM (inactive)	> 100 µM (inactive)	> 100 µM (inactive)	> 100 µM (inactive)	> 100 µM (inactive)	> 100 µM (inactive)	> 100 µM (inactive)	> 100 µM (inactive)	> 100 µM (inactive)	–	> 100 µM (inactive)	–	> 100 µM (inactive)
N/N=C(\C(=O)Nc1ccc(Cl)cc1Cl)C(c1cnc2ccccc2n1)[N+](=O)[O-] (stereo not drawn)	> 100 µM (inactive)	> 100 µM (inactive)	> 100 µM (inactive)	44.2 µM (inactive)	> 100 µM (inactive)	> 100 µM (inactive)	> 100 µM (inactive)	> 100 µM (inactive)	> 100 µM (inactive)	> 100 µM (inactive)	> 100 µM (inactive)	> 100 µM (inactive)	> 100 µM (inactive)	> 100 µM (inactive)	–	> 100 µM (inactive)	–	> 100 µM (inactive)	> 100 µM (inactive)	> 100 µM (inactive)
c1ccc2c(c1)nnn1c3cnccc3nc21	42.2 µM (inactive)	–	94 µM (inactive)	38.9 µM (inactive)	18.5 µM (inactive)	39.1 µM (inactive)	85.1 µM (inactive)	47 µM (inactive)	23.9 µM (inactive)	13.9 µM (inactive)	77.1 µM (inactive)	35.4 µM (inactive)	9.53 µM (inactive)	> 100 µM (inactive)	15.7 µM (inactive)	52.6 µM (inactive)	–	91 µM (inactive)	–	18.9 µM (inactive)
CC1OC(OC2C(OC(=O)[C@]34CCC(C)(C)C[C@H]3C3=CC[C@@H]5[C@@]6(C)CC[C@H](OC7OC(CO)C(O)C(O)C7OC7OC(CO)C(O)C(O)C7O)C(C)(C)[C@@H]6CC[C@@]5(C)[C@]3(C)CC4)OCC(O)C2O)C(O)C(O)C1OC1OCC(O)C(O)C1O (stereo partly drawn)	16.3 µM (inactive)	2.79 µM (inactive)	2.25 µM (inactive)	2.3 µM (inactive)	12.9 µM (inactive)	18.2 µM (inactive)	2.51 µM (inactive)	16.9 µM (inactive)	7.73 µM (inactive)	3.67 µM (inactive)	11.2 µM (inactive)	45.8 µM (inactive)	18.5 µM (inactive)	3.82 µM (inactive)	16.4 µM (inactive)	14.3 µM (inactive)	11.9 µM (inactive)	4.67 µM (inactive)	–	23.9 µM (inactive)
O=C(/C=C/c1cccs1)c1ccc(Cl)cc1	> 100 µM (inactive)	–	99.3 µM (inactive)	82.2 µM (inactive)	22.2 µM (inactive)	–	> 100 µM (inactive)	> 100 µM (inactive)	43.9 µM (inactive)	–	99.3 µM (inactive)	> 100 µM (inactive)	29.9 µM (inactive)	> 100 µM (inactive)	23.3 µM (inactive)	65.2 µM (inactive)	> 100 µM (inactive)	–	44.9 µM (inactive)	–
CCc1cccc(C(C)C)c1N1C(=O)C(=O)C(c2nc3ccccc3s2)C(=O)C1=O	> 50 µM (inactive)	–	> 50 µM (inactive)	> 50 µM (inactive)	18.3 µM (inactive)	> 46.2 µM (inactive)	> 39.3 µM (inactive)	> 50 µM (inactive)	> 44.7 µM (inactive)	17.7 µM (inactive)	> 39.4 µM (inactive)	> 50 µM (inactive)	11.3 µM (inactive)	> 26.2 µM (inactive)	12.6 µM (inactive)	21.8 µM (inactive)	–	> 44.4 µM (inactive)	–	> 25.5 µM (inactive)

Source: ChEMBL document CHEMBL1201862, “PubChem BioAssay data set” (2004)
